Assay results published in patent publication US20200239530A1, “COMPOUNDS AND METHODS OF MODULATING PROTEIN DEGRADATION” (Vividion Therapeutics, Inc., priority 2017, published 2020).

Experiments:
Assay type in all cases: binding
UniProt Q7L0R7 = biological target: T1, UniProt Q7L0R7 (Homo sapiens, UniProt Q7L0R7); assay: Cysteine liganding, probe competition
T1 construct: 200 μL of lysate containing 5 mg/ml proteome was treated with 2 μL of 100× compound stock; endogenous in cells
From the text: (§1) The following 96-well sample prep protocol was used for sample preparation.

UniProt Q96EP0 = biological target: T2, UniProt Q96EP0 (Homo sapiens, UniProt Q96EP0); assay: Cysteine liganding, probe competition; conditions: 500 uM
T2 construct: 200 μL of lysate containing 5 mg/ml proteome was treated with 2 μL of 100× compound stock; endogenous in cells
From the text: as §1

UniProt Q9H000 = biological target: T3, UniProt Q9H000 (Homo sapiens, UniProt Q9H000); assay: Cysteine liganding, probe competition; conditions: 100 uM
T3 construct: Cells were resuspended in cold PBS on ice and sonicated with a probe sonicator to achieve lysis; endogenous in cells
From the text: as §1

UniProt Q9NQ86 = biological target: T4, UniProt Q9NQ86 (Homo sapiens, UniProt Q9NQ86); assay: Cysteine liganding, probe competition
T4 construct: 200 μL of lysate containing 5 mg/ml proteome was treated with 2 μL of 100× compound stock; endogenous in cells
T4 sequence (Q9NQ86 whole entry, change not shown): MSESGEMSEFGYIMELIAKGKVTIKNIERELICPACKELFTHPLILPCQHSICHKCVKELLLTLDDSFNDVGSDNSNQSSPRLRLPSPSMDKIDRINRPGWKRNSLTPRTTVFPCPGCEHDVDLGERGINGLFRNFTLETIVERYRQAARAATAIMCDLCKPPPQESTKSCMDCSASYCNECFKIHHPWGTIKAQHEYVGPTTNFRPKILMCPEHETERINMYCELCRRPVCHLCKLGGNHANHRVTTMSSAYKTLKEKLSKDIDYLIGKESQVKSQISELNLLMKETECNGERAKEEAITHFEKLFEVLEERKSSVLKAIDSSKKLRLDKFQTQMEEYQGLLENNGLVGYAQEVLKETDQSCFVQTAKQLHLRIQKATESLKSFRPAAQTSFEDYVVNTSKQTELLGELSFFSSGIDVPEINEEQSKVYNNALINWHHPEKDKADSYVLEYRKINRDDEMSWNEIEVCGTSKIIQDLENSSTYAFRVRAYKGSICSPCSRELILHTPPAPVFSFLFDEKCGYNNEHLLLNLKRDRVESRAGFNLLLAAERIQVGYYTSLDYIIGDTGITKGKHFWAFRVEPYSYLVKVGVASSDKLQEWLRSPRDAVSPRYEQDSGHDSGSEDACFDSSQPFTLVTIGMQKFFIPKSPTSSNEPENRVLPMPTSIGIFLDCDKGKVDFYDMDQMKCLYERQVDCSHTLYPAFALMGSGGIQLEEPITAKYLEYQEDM
From the text: as §1

UniProt Q9NRJ4 = biological target: T5, UniProt Q9NRJ4 (Homo sapiens, UniProt Q9NRJ4); assay: Cysteine liganding, probe competition; conditions: read-out: KB02_100 uM_percent_inhibition
T5 construct: 200 μL of lysate containing 5 mg/ml proteome was treated with 2 μL of 100× compound stock; endogenous in cells
T5 sequence (Q9NRJ4 whole entry, change not shown): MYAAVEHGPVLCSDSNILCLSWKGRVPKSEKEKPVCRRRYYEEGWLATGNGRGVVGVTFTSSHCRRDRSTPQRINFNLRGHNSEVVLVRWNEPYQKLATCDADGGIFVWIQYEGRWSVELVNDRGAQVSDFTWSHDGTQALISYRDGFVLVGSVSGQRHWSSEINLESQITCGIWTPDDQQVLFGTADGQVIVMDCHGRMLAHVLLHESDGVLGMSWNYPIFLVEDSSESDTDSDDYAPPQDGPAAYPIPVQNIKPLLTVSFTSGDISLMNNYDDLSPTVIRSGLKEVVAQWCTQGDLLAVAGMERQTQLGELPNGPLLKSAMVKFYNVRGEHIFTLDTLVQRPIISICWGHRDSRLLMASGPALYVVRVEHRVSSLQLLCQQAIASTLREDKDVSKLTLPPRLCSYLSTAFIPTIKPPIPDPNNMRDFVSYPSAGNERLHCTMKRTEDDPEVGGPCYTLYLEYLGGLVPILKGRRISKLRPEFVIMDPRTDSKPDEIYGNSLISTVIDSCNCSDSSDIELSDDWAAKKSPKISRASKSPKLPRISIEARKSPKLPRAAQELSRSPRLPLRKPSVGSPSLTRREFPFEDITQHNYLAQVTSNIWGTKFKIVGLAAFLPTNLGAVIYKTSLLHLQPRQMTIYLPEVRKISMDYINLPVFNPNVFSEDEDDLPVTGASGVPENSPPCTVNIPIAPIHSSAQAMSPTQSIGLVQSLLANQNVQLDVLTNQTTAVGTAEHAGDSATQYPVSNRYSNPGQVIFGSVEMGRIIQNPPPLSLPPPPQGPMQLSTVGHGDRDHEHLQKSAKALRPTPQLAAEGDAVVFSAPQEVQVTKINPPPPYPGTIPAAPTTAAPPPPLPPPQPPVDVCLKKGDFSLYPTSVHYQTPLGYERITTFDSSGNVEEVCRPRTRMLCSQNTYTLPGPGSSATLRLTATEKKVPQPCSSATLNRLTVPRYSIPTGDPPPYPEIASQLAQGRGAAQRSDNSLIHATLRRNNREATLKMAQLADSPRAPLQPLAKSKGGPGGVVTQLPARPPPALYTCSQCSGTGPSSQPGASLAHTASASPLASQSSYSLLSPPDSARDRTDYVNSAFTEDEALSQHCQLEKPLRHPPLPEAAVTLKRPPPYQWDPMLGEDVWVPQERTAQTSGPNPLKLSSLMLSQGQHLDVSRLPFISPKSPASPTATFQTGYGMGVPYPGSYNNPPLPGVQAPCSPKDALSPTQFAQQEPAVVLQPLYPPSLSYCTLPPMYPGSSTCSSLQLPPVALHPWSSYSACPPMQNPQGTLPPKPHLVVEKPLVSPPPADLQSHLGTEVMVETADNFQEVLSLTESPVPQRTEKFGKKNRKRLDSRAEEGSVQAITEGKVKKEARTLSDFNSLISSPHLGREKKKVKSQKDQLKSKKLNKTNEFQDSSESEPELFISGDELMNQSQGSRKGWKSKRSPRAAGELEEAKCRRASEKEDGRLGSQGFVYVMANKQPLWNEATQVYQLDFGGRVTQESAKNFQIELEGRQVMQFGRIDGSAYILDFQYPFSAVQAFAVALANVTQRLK
From the text: as §1

[1] = biological target: T6, cysteine residue illustrated in Table 1A or Table 2A (Homo sapiens, UniProt Q86Y01); assay: Competitive cysteine profiling of cell lysate with desthiobiotin iodoacetamide probe (96-well sample prep); conditions: UniProt Q86Y01; 100 uM
T6 construct: Cells were resuspended in cold PBS on ice and sonicated with a probe sonicator to achieve lysis; endogenous in cells
How it was run: (§2)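 Sonicated cell lysate (5 mg/ml proteome) was preincubated with compound 1 h at 25 °C, then labelled with desthiobiotin iodoacetamide probe 1 h at 25 °C. After reduction, alkylation and trypsin digestion, probe-labelled peptides were streptavidin-enriched and eluted for mass-spectrometric analysis.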

UniProt P19474 = biological target: T7, UniProt P19474 (Homo sapiens, UniProt P19474); assay: Cysteine liganding, probe competition; conditions: read-out: KB05_100 uM_percent_inhibition
T7 construct: 200 μL of lysate containing 5 mg/ml proteome was treated with 2 μL of 100× compound stock; endogenous in cells
From the text: as §1

UniProt Q9HAT8 = biological target: T8, UniProt Q9HAT8 (Homo sapiens, UniProt Q9HAT8); assay: Cysteine liganding, probe competition
T8 construct: 200 μL of lysate containing 5 mg/ml proteome was treated with 2 μL of 100× compound stock; endogenous in cells
T8 sequence (Q9HAT8 whole entry, change not shown): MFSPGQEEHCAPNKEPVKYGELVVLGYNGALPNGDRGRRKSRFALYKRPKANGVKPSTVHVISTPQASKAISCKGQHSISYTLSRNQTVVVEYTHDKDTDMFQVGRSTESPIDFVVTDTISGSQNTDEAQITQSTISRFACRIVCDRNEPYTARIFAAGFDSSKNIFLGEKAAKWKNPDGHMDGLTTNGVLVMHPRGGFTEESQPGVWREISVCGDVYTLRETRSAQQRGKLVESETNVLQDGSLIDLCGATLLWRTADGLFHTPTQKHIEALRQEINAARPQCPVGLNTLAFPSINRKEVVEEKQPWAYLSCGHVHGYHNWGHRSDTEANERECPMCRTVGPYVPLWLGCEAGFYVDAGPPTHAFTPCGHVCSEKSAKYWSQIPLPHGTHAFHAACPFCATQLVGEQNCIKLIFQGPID
From the text: as §1

UniProt Q9NS56 = biological target: T9, UniProt Q9NS56 (Homo sapiens, UniProt Q9NS56); assay: Cysteine liganding, probe competition
T9 construct: 200 μL of lysate containing 5 mg/ml proteome was treated with 2 μL of 100× compound stock; endogenous in cells
T9 sequence (Q9NS56 whole entry, change not shown): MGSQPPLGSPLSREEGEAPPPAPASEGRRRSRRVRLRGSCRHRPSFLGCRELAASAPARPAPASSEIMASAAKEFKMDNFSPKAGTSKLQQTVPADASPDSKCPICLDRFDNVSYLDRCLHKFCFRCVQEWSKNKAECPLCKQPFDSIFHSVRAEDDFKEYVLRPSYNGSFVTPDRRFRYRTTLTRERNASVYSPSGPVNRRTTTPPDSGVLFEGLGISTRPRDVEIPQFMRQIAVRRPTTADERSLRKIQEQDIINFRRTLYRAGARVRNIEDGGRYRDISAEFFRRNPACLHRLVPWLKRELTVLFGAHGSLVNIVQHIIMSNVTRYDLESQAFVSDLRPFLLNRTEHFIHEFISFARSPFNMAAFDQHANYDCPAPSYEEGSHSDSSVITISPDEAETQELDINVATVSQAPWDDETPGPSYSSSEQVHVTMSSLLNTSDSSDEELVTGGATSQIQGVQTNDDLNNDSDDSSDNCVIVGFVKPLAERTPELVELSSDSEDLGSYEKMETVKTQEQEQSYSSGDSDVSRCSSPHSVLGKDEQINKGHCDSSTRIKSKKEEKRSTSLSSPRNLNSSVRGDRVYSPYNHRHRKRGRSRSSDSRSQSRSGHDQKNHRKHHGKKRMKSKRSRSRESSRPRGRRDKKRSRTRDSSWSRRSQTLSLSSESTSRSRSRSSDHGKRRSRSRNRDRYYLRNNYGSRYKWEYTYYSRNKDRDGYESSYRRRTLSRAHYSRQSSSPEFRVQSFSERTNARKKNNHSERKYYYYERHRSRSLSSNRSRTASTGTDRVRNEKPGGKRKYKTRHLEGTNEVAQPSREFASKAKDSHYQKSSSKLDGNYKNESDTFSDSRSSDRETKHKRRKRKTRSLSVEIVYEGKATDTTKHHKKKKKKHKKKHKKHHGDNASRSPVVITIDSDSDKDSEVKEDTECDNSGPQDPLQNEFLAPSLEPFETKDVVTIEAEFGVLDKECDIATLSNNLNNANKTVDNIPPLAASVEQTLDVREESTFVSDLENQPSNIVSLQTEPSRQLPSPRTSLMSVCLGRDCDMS
From the text: as §1

[2] = biological target: T10, cysteine residue illustrated in Table 1A or Table 2A (Homo sapiens, UniProt O76080); assay: Competitive cysteine profiling of cell lysate with desthiobiotin iodoacetamide probe (96-well sample prep); conditions: UniProt O76080; KB03 100 uM
T10 construct: Cells were resuspended in cold PBS on ice and sonicated with a probe sonicator to achieve lysis; endogenous in cells
T10 sequence (O76080 whole entry): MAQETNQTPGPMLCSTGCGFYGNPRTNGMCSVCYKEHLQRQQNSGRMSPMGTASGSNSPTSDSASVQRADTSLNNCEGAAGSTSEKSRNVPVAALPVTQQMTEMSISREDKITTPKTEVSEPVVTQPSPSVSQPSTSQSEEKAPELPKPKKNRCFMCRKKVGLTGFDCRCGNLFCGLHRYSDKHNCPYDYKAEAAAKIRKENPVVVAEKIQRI
How it was run: as §2

[3] = biological target: T11, cysteine residue illustrated in Table 1A or Table 2A (Homo sapiens, UniProt P10074); assay: as above; conditions: UniProt P10074; KB03 100 uM
T11 construct: Cells were resuspended in cold PBS on ice and sonicated with a probe sonicator to achieve lysis; endogenous in cells
How it was run: as §2

[4] = biological target: T12, cysteine residue illustrated in Table 1A or Table 2A (Homo sapiens, UniProt Q15386); assay: as above; conditions: UniProt Q15386; KB03 100 uM
T12 construct: Cells were resuspended in cold PBS on ice and sonicated with a probe sonicator to achieve lysis; endogenous in cells
How it was run: as §2

UniProt Q9BUZ4 = biological target: T13, UniProt Q9BUZ4 (Homo sapiens, UniProt Q9BUZ4); assay: Cysteine liganding, probe competition; conditions: 100 uM
T13 construct: 200 μL of lysate containing 5 mg/ml proteome was treated with 2 μL of 100× compound stock; endogenous in cells
T13 sequence (Q9BUZ4 whole entry, change not shown): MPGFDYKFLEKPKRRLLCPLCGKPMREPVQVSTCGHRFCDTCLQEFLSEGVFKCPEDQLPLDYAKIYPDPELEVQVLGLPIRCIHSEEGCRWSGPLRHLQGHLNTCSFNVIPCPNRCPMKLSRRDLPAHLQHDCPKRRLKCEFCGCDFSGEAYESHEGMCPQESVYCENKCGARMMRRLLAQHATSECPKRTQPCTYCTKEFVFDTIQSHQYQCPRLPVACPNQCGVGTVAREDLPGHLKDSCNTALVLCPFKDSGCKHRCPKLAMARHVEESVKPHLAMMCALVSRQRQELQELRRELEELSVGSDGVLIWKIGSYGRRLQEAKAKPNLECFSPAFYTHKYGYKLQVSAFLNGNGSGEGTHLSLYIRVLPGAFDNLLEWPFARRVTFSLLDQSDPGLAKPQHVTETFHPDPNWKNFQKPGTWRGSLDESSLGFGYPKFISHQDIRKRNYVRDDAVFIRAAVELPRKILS
From the text: as §1

T1 sequence (Q7L0R7 whole entry, change not shown): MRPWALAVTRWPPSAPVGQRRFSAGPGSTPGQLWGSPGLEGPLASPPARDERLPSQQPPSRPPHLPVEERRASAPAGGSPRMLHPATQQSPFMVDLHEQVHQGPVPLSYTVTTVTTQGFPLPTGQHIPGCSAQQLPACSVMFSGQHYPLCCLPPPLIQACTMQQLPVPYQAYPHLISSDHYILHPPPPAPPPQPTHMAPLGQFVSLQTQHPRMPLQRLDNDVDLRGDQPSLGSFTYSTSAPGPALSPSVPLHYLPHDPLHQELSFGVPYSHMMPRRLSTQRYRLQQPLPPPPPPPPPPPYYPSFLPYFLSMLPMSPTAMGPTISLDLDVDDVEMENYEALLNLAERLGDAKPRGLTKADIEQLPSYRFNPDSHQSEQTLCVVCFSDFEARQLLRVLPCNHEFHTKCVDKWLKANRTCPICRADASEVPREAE

In the case of `COc1ccc2c(c1)CCCN2C(=O)CCl` [KB02], the inhibition at 100 µM (UniProt Q7L0R7; 100 uM, read-out: percent_inhibition) is reported as 44%, the percent_inhibition (UniProt Q7L0R7; 500 uM) is reported as 42% and the inhibition at 500 µM (UniProt Q7L0R7; 500 uM, read-out: percent_inhibition) is reported as 41%. The percent_inhibition (UniProt Q96EP0) was 24%, the percent inhibition (UniProt Q9H000) was 24% and the inhibition at 100 µM (UniProt Q9NQ86; 100 uM, read-out: KB02_100 uM_percent_inhibition) was 27%. The “KB02_500 uM_percent_inhibition” value (UniProt Q9NQ86; 500 uM) was 88% and the inhibition at 100 µM (UniProt Q9NRJ4) was 28%.

For `C=CC(=O)N(c1ccccc1)c1ccc(Br)cc1` [KB05], the “KB05_100 uM_percent_inhibition” value [1] was 17%, the inhibition at 100 µM (UniProt P19474) was 39% and the inhibition at 100 µM (UniProt Q9HAT8; 100 uM, read-out: KB05_100 uM_percent_inhibition) was 15%. It also gave an inhibition at 500 µM (UniProt Q9HAT8; 500 uM, read-out: KB05_500 uM_percent_inhibition) of 63%, a percent_inhibition (UniProt Q9NS56; 100 uM) of 11% and an inhibition at 100 µM (UniProt Q9NS56; read-out: percent_inhibition) of 13%.

`O=C(CCl)Nc1cc(C(F)(F)F)cc(C(F)(F)F)c1` [KBO3] was tested, and the “KB03_100 uM_percent_inhibition” value [2] was 14%, the “KB03_100 uM_percent_inhibition” value [3] was 24% and the “KB03_100 uM_percent_inhibition” value [4] was 16%. For the same compound, the percent_inhibition (UniProt Q9BUZ4) was 30%.
